Columns and labels:
[1] = target: GDP-bound KRAS wild-type protein (Homo sapiens, UniProt P01116); assay: Binding to KRAS by surface plasmon resonance (SPR), Single Cycle Kinetics; settings: SPR, Single Cycle Kinetics, 1:1 binding model; GDP-bound KRAS wild-type protein; read-out: KRAS KD
[2] = target: GDP-bound NRAS wild-type protein (Homo sapiens, UniProt P01111); assay: Binding to NRAS by surface plasmon resonance (SPR), Single Cycle Kinetics; settings: SPR; GDP-bound NRAS wild-type protein vs GDP-bound KRAS wild-type protein; KD ratio class
Sequence of GDP-bound NRAS wild-type protein (P01111 whole entry): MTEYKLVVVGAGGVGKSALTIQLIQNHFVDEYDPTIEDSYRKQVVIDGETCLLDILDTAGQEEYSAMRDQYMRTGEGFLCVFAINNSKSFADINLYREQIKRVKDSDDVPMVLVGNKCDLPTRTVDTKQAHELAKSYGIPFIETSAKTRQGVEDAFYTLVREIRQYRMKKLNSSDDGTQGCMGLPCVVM

[3] = target: GDP-bound HRAS wild-type protein (Homo sapiens, UniProt P01112); assay: Binding to HRAS by surface plasmon resonance (SPR), Single Cycle Kinetics; settings: SPR; GDP-bound HRAS wild-type protein vs GDP-bound KRAS wild-type protein; KD ratio class
Sequence of GDP-bound HRAS wild-type protein (P01112 whole entry): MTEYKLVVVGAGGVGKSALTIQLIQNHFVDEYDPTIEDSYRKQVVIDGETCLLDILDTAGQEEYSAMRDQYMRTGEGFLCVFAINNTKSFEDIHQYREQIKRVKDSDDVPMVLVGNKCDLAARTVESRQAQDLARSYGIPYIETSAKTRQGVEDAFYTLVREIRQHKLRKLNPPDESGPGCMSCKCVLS

Sequence of GDP-bound KRAS wild-type protein (P01116 whole entry): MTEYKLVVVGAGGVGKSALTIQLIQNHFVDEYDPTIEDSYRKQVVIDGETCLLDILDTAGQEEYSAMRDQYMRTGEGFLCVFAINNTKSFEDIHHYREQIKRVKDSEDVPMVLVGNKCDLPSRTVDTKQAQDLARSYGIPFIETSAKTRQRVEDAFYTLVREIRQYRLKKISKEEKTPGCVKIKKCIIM

`CC[C@H](C)[C@@H]1NC(=O)[C@H](CC2CC2)N(C)C(=O)C[C@@H](C(=O)N(C)C)N(C)C(=O)[C@H](C2CCCC2)N(C)C(=O)C2(CCC2)NC(=O)[C@@H]2C[C@@H](C(F)(F)F)CN2C(=O)[C@H](CCc2cc(F)c(C(F)(F)F)c(F)c2)NC(=O)CN(C)C(=O)[C@H](Cc2ccc(C(F)(F)F)cc2)N2CC/C=C\C[C@@H](C2=O)N(C)C(=O)CN(C)C1=O` [PP1498] was tested, and the Kd [1] was 0.069 nM, the “NRAS/KRAS (ratio of KD value for NRAS to KD value for KRAS)” value [2] was “A (a compound having 10 or more and less than 20 is denoted as A)” and the “HRAS/KRAS (ratio of KD value for HRAS to KD value for KRAS)” value [3] was “A (a compound having 10 or more and less than 20 is denoted as A)”.

With `CC[C@H](C)[C@@H]1NC(=O)[C@H](CC2CC2)N(C)C(=O)C[C@@H](C(=O)N(C)C)N(C)C(=O)[C@H](C2CCCC2)N(C)C(=O)C2(CCC2)NC(=O)[C@@H]2C[C@H](C)CN2C(=O)[C@H](CCc2cc(F)c(C(F)(F)F)c(F)c2)NC(=O)CN(C)C(=O)[C@H](Cc2ccc(C(F)(F)F)cc2)N2CC/C=C\C[C@@H](C2=O)N(C)C(=O)CN(C)C1=O` [PP1499, (2S,8S,12S,14S,20S,23S,27S,30S,36S,38Z)-20-cyclopentyl-27-(cyclopropylmethyl)-8-[2-[3,5-difluoro-4-(trifluoromethyl)phenyl]ethyl]-N,N,4,12,19,22,26,32,35-nonamethyl-30-[(1S)-1-methylpropyl]-3,6,9,15,18,21,25,28,31,34,42-undecaoxo-2-[[4-(trifluoromethyl)phenyl]methyl]spiro[1,4,7,10,16,19,22,26,29,32,35-undecazatricyclo[34.5.1.0^10,14]dotetracont-38-ene-17,1′-cyclobutane]-23-carboxamide] the Kd [1] was 0.054 nM, the “NRAS/KRAS (ratio of KD value for NRAS to KD value for KRAS)” value [2] was “A (a compound having 10 or more and less than 20 is denoted as A)” and the “HRAS/KRAS (ratio of KD value for HRAS to KD value for KRAS)” value [3] was “B (a compound having 3 or more and less than 10 is denoted as B)”.

For `CC[C@H](C)[C@@H]1NC(=O)[C@H](CC2CC2)N(C)C(=O)C[C@@H](C(=O)N(C)C)N(C)C(=O)[C@H](C2CCCC2)N(C)C(=O)C2(CCC2)NC(=O)[C@@H]2CC(F)(F)CN2C(=O)[C@H](CCc2cc(F)c(C(F)(F)F)c(F)c2)NC(=O)CN(C)C(=O)[C@H](Cc2ccc(C(F)(F)F)cc2)N2CC/C=C\C[C@@H](C2=O)N(C)C(=O)CN(C)C1=O` [PP1500, (2S,8S,14S,20S,23S,27S,30S,36S,38Z)-20-cyclopentyl-27-(cyclopropylmethyl)-8-[2-[3,5-difluoro-4-(trifluoromethyl)phenyl]ethyl]-12,12-difluoro-N,N,4,19,22,26,32,35-octamethyl-30-[(1S)-1-methylpropyl]-3,6,9,15,18,21,25,28,31,34,42-undecaoxo-2-[[4-(trifluoromethyl)phenyl]methyl]spiro[1,4,7,10,16,19,22,26,29,32,35-undecazatricyclo[34.5.1.0^10,14]dotetracont-38-ene-17,1′-cyclobutane]-23-carboxamide], the Kd [1] was 0.039 nM, the “NRAS/KRAS (ratio of KD value for NRAS to KD value for KRAS)” value [2] was “A (a compound having 10 or more and less than 20 is denoted as A)” and the “HRAS/KRAS (ratio of KD value for HRAS to KD value for KRAS)” value [3] was “A (a compound having 10 or more and less than 20 is denoted as A)”.

`CC[C@H](C)[C@@H]1NC(=O)[C@H](CC2CC2)N(C)C(=O)C[C@@H](C(=O)N(C)C)N(C)C(=O)[C@H](C2CCCC2)N(C)C(=O)C2(CC(C)(C)C2)NC(=O)[C@@H]2C[C@@H](F)CN2C(=O)[C@H](CCc2cc(F)c(C(F)(F)F)c(F)c2)NC(=O)CN(C)C(=O)[C@H](Cc2ccc(C(F)(F)F)cc2)N2CC/C=C\C[C@@H](C2=O)N(C)C(=O)CN(C)C1=O` [PP1501, (2S,8S,12R,14S,20S,23S,27S,30S,36S,38Z)-20-cyclopentyl-27-(cyclopropylmethyl)-8-[2-[3,5-difluoro-4-(trifluoromethyl)phenyl]ethyl]-12-fluoro-N,N,3′,3′,4,19,22,26,32,35-decamethyl-30-[(1S)-1-methylpropyl]-3,6,9,15,18,21,25,28,31,34,42-undecaoxo-2-[[4-(trifluoromethyl)phenyl]methyl]spiro[1,4,7,10,16,19,22,26,29,32,35-undecazatricyclo[34.5.1.0^10,14]dotetracont-38-ene-17,1′-cyclobutane]-23-carboxamide] was tested, and the Kd [1] was 0.024 nM, the “NRAS/KRAS (ratio of KD value for NRAS to KD value for KRAS)” value [2] was “A (a compound having 10 or more and less than 20 is denoted as A)” and the “HRAS/KRAS (ratio of KD value for HRAS to KD value for KRAS)” value [3] was “A (a compound having 10 or more and less than 20 is denoted as A)”.

For `CC[C@H](C)[C@@H]1NC(=O)[C@H](CC2CCCC2)N(C)C(=O)C[C@@H](C(=O)N(C)C)N(C)C(=O)[C@H](C2CCCC2)N(C)C(=O)C2(CCC2)NC(=O)[C@@H]2C[C@@H](F)CN2C(=O)[C@H](CCc2cc(F)c(C(F)(F)F)c(F)c2)NC(=O)CN(C)C(=O)[C@H](Cc2ccc(C(F)(F)F)cc2)N2CC/C=C\C[C@@H](C2=O)N(C)C(=O)CN(C)C1=O` [PP1502], the Kd [1] was 0.038 nM, the “NRAS/KRAS (ratio of KD value for NRAS to KD value for KRAS)” value [2] was “A (a compound having 10 or more and less than 20 is denoted as A)” and the “HRAS/KRAS (ratio of KD value for HRAS to KD value for KRAS)” value [3] was “A (a compound having 10 or more and less than 20 is denoted as A)”.

In the case of `CC[C@H](C)[C@@H]1NC(=O)[C@H](CC2CC2)N(C)C(=O)C[C@@H](C(=O)N2CCCC2)N(C)C(=O)[C@H](C2CCCC2)N(C)C(=O)C2(CCCC2)NC(=O)[C@@H]2C[C@@H](F)CN2C(=O)[C@H](CCc2cc(F)c(C(F)(F)F)c(F)c2)NC(=O)CN(C)C(=O)[C@H](Cc2ccc(C(F)(F)F)cc2)N2CC/C=C\C[C@@H](C2=O)N(C)C(=O)CN(C)C1=O` [PP1503], the Kd [1] is reported as 0.11 nM, the “NRAS/KRAS (ratio of KD value for NRAS to KD value for KRAS)” value [2] is reported as “A (a compound having 10 or more and less than 20 is denoted as A)” and the “HRAS/KRAS (ratio of KD value for HRAS to KD value for KRAS)” value [3] is reported as “A (a compound having 10 or more and less than 20 is denoted as A)”.

`CC[C@H](C)[C@@H]1NC(=O)[C@H](CC2CC2)N(C)C(=O)C[C@@H](C(=O)N(C)C)N(C)C(=O)[C@H](C2CCCC2)N(C)C(=O)C2(CC(C)(C)C2)NC(=O)[C@@H]2C[C@@H](C(F)(F)F)CN2C(=O)[C@H](CCc2cc(F)c(C(F)(F)F)c(F)c2)NC(=O)CN(C)C(=O)[C@H](Cc2ccc(C(F)(F)F)cc2)N2CC/C=C\C[C@@H](C2=O)N(C)C(=O)CN(C)C1=O` [PP1504] was tested, and the Kd [1] was 0.32 nM, the “NRAS/KRAS (ratio of KD value for NRAS to KD value for KRAS)” value [2] was “A (a compound having 10 or more and less than 20 is denoted as A)” and the “HRAS/KRAS (ratio of KD value for HRAS to KD value for KRAS)” value [3] was “A (a compound having 10 or more and less than 20 is denoted as A)”.

For `CC[C@H](C)[C@@H]1NC(=O)[C@H](CC2CCCC2)N(C)C(=O)C[C@@H](C(=O)N(C)C)N(C)C(=O)[C@H](C2CCCC2)N(C)C(=O)C2(CCC2)NC(=O)[C@@H]2C[C@@H](C(F)(F)F)CN2C(=O)[C@H](CCc2cc(F)c(C(F)(F)F)c(F)c2)NC(=O)CN(C)C(=O)[C@H](Cc2ccc(C(F)(F)F)cc2)N2CC/C=C\C[C@@H](C2=O)N(C)C(=O)CN(C)C1=O` [PP1505], the Kd [1] was 0.092 nM, the “NRAS/KRAS (ratio of KD value for NRAS to KD value for KRAS)” value [2] was “A (a compound having 10 or more and less than 20 is denoted as A)” and the “HRAS/KRAS (ratio of KD value for HRAS to KD value for KRAS)” value [3] was “A (a compound having 10 or more and less than 20 is denoted as A)”.

For `CC[C@H](C)[C@@H]1NC(=O)[C@H](CC2CC2)N(C)C(=O)C[C@@H](C(=O)N2CCCC2)N(C)C(=O)[C@H](C2CCCC2)N(C)C(=O)C2(CCCC2)NC(=O)[C@@H]2C[C@@H](C(F)(F)F)CN2C(=O)[C@H](CCc2cc(F)c(C(F)(F)F)c(F)c2)NC(=O)CN(C)C(=O)[C@H](Cc2ccc(C(F)(F)F)cc2)N2CC/C=C\C[C@@H](C2=O)N(C)C(=O)CN(C)C1=O` [PP1506], the Kd [1] was 0.34 nM, the “NRAS/KRAS (ratio of KD value for NRAS to KD value for KRAS)” value [2] was “AA (a compound having 20 or more is denoted as AA)” and the “HRAS/KRAS (ratio of KD value for HRAS to KD value for KRAS)” value [3] was “A (a compound having 10 or more and less than 20 is denoted as A)”.

In the case of `CC[C@H](C)[C@@H]1NC(=O)[C@H](CC2CC2)N(C)C(=O)C[C@@H](C(=O)N(C)C)N(C)C(=O)[C@H](C2CCCC2)N(C)C(=O)C2(CC(C)(C)C2)NC(=O)[C@@H]2C[C@@H](C(F)(F)F)CN2C(=O)[C@H](CCc2cc(F)c(C(F)(F)F)c(F)c2)NC(=O)CN(C)C(=O)[C@H](Cc2ccc(F)cc2)N2CC/C=C\C[C@@H](C2=O)N(C)C(=O)CN(C)C1=O` [PP1507], the Kd [1] is reported as 0.17 nM, the “NRAS/KRAS (ratio of KD value for NRAS to KD value for KRAS)” value [2] is reported as “A (a compound having 10 or more and less than 20 is denoted as A)” and the “HRAS/KRAS (ratio of KD value for HRAS to KD value for KRAS)” value [3] is reported as “A (a compound having 10 or more and less than 20 is denoted as A)”.

`CC[C@H](C)[C@@H]1NC(=O)[C@H](CC2CC2)N(C)C(=O)C[C@@H](C(=O)N2CCCC2)N(C)C(=O)[C@H](C2CCCC2)N(C)C(=O)C2(CCC2)NC(=O)[C@@H]2C[C@H](C)CN2C(=O)[C@H](CCc2cc(F)c(C(F)(F)F)c(F)c2)NC(=O)CN(C)C(=O)[C@H](Cc2ccc(C(F)(F)F)cc2)N2CC/C=C\C[C@@H](C2=O)N(C)C(=O)CN(C)C1=O` [PP1510, (2S,8S,12S,14S,20S,23S,27S,30S,36S,38Z)-20-cyclopentyl-27-(cyclopropylmethyl)-8-[2-[3,5-difluoro-4-(trifluoromethyl)phenyl]ethyl]-4,12,19,22,26,32,35-heptamethyl-30-[(1S)-1-methylpropyl]-23-(pyrrolidine-1-carbonyl)-2-[[4-(trifluoromethyl)phenyl]methyl]spiro[1,4,7,10,16,19,22,26,29,32,35-undecazatricyclo[34.5.1.0^10,14]dotetracont-38-ene-17,1′-cyclobutane]-3,6,9,15,18,21,25,28,31,34,42-undecone] was tested, and the Kd [1] was 0.11 nM, the “NRAS/KRAS (ratio of KD value for NRAS to KD value for KRAS)” value [2] was “AA (a compound having 20 or more is denoted as AA)” and the “HRAS/KRAS (ratio of KD value for HRAS to KD value for KRAS)” value [3] was “A (a compound having 10 or more and less than 20 is denoted as A)”.
